The text below walks through data of JPH09183729A, “凍結乾燥ウラシルを含有する抗腫瘍医薬組成物” (priority 1995, dated 1997).

For data set [1] the following is noted: FT compared with 5-FU; UFT compared with 5-FU, FT and other antitumour drugs; cited from earlier work.
The nature of another data set: physchem. The note with it: water, saturated solution concentration in water.
The conditions of data set [2]: cited from earlier work.

What is called solubility is the concentration that dissolves in the medium under given conditions. A higher solubility goes with a readily soluble substance.

In brackets after ≈: the same amount, converted by molar mass.

Take `O=c1[nH]cc(F)c(=O)[nH]1` [5-FU, 5-fluorouracil]: the “toxicity / side effects” value in data set [1] is listed as “骨髄機能抑制などの重篤な副作用があり”.
`O=c1cc[nH]c(=O)[nH]1` [ウラシル] displayed a solubility in the data set “physchem” of approximately 14.7 mg/mL (≈ 131 mM). Besides, the solubility in water in data set [2] (25℃ water, Merck Index) is given as 0.358 g/100g. Also, the “solubility in alcohol and ether” value in data set [2] (alcohol and ether) is “難溶”. Also, the “solubility in cold water” value in data set [2] (cold water) was “わずかに溶け”.
